Data reported in DBAASP.
In brackets after ≈: the same amount, converted by molar mass. Several values for one entry are separate records, joined by “and”; a condition that tells them apart may be missing. Equal values may be shown once.

What was measured:
Assay in all cases: ≥ marks a high value that may be exact or a test limit, other limits are often not marked, values filed in µg/mL are converted to µM
[1] = system: Staphylococcus aureus ATCC 25923
[2] = system: Yersinia enterocolitica
[3] = system: Candida albicans ATCC 10231
[4] = system: Candida glabrata ATCC 2001
[5] = system: Candida krusei ATCC 6258
[6] = system: Candida parapsilosis ATCC 90018
[7] = system: Candida tropicalis ATCC 750
[8] = system: Escherichia coli ATCC 25922
[9] = system: Pseudomonas aeruginosa ATCC 27853
[10] = system: Staphylococcus aureus ATCC 29213
[11] = system: Candida albicans DBFIQ 1
[12] = system: Candida albicans PEEC 2
[13] = system: Candida tropicalis DBFIQ 3
[14] = system: Enterococcus faecalis ATCC 29212
[15] = system: Escherichia coli ATCC 35218
[16] = system: Staphylococcus aureus BSF FBCB1313
[17] = system: Bifidobacterium longum subsp. infantis
[18] = system: Escherichia coli
[19] = system: Staphylococcus aureus
[20] = system: Bacillus subtilis PY22
[21] = system: Escherichia coli DH5alpha
[22] = system: Candida albicans TIMM 0144
[23] = system: Trichophyton mentagrophytes TIMM 1189
[24] = system: Acinetobacter baumannii 97830
[25] = system: Acinetobacter baumannii 9931
[26] = system: Acinetobacter baumannii ATCC 19606(CipR)
[27] = system: Acinetobacter baumannii ATCC 19606(GenR)
[28] = system: Acinetobacter baumannii ATCC 19606(ImiR)
[29] = system: Acinetobacter baumannii ATCC 19606(RifR)
[30] = system: Acinetobacter baumannii ATCC 19606
[31] = system: Bacillus subtilis ATCC 23857
[32] = system: Escherichia coli 780
[33] = system: Escherichia coli 804
[34] = system: Escherichia coli ATCC 25922(CipR)
[35] = system: Escherichia coli ATCC 25922(GenR)
[36] = system: Escherichia coli ATCC 25922(ImiR)
[37] = system: Escherichia coli ATCC 25922(RifR)
[38] = system: Klebsiella pneumoniae ATCC 700603(CipR)
[39] = system: Klebsiella pneumoniae ATCC 700603(GenR)
[40] = system: Klebsiella pneumoniae ATCC 700603(ImiR)
[41] = system: Klebsiella pneumoniae ATCC 700603(RifR)
[42] = system: Klebsiella pneumoniae ATCC 700603
[43] = system: Pseudomonas aeruginosa 50
[44] = system: Pseudomonas aeruginosa ATCC 27853(CipR)
[45] = system: Pseudomonas aeruginosa ATCC 27853(GenR)
[46] = system: Pseudomonas aeruginosa ATCC 27853(ImiR)
[47] = system: Pseudomonas aeruginosa ATCC 27853(RifR)
[48] = system: Pseudomonas aeruginosa ATCC 9027
[49] = system: Staphylococcus aureus 113
[50] = system: Staphylococcus aureus 75
[51] = system: Staphylococcus epidermidis ATCC 12228

`CC[C@H](C)[C@H](NC(=O)[C@H](CCC(N)=O)NC(=O)[C@H](Cc1cnc[nH]1)NC(=O)[C@@H](NC(=O)[C@@H]1CCCN1C(=O)[C@H](CC(N)=O)NC(=O)[C@H](CC(C)C)NC(=O)[C@H](CC(C)C)NC(=O)[C@H](CC(C)C)NC(=O)[C@@H](N)CCC(=O)O)[C@@H](C)O)C(=O)N[C@@H](Cc1ccc(O)cc1)C(=O)N1CCC[C@H]1C(=O)N[C@H](C(=O)N[C@H](C(=O)N[C@@H](CCC(N)=O)C(=O)N1CCC[C@H]1C(=O)N[C@@H](CC(C)C)C(=O)N[C@@H](C)C(=O)N1CCC[C@H]1C(=O)N[C@H](C(=O)O)C(C)C)[C@@H](C)O)C(C)C` [ELLLNPTHQIYPVTQPLAPV] was tested, and the MIC [1] was 89.1 µM (≈ 200 µg/mL) and the MIC [2] was no less than 89.1 µM.
`CC[C@H](C)[C@H](NC(=O)CN)C(=O)N[C@@H](CC(C)C)C(=O)N[C@@H](CC(=O)O)C(=O)N[C@H](C(=O)N[C@@H](CCCCN)C(=O)N[C@@H](CC(N)=O)C(=O)N[C@@H](CCCCN)C(=O)N[C@H](C(=O)N[C@@H](CO)C(=O)N[C@@H](CC(N)=O)C(=O)N[C@@H](CC(C)C)C(=O)N[C@@H](Cc1ccccc1)C(N)=O)C(C)C)[C@@H](C)CC` [GILDIKNKVSNLF] was tested, and the MIC [3] was 62.5 µM (≈ 91.2 µg/mL), the MIC [4] was no less than 250 µM and the MIC [5] was no less than 62.5 µM. The MIC [6] was no less than 125 µM, the MIC [7] was 31.2 µM (≈ 45.5 µg/mL) and the MIC [8] was 62.5 µM (≈ 91.2 µg/mL). For the same compound, the MIC [9] was 62.5 µM (≈ 91.2 µg/mL) and the MIC [10] was 31.2 µM (≈ 45.5 µg/mL).
`CC(C)C[C@H](NC(=O)[C@@H](N)CCCCN)C(=O)N[C@@H](Cc1ccccc1)C(=O)N[C@@H](CCCCN)C(N)=O` [KLFK] showed an MIC [11] of no less than 480 µM, an MIC [12] of no less than 480 µM and an MIC [13] of no less than 480 µM. For the same compound, the MIC [14] was greater than 240 µM, the MIC [15] was no less than 240 µM and the MIC [9] was greater than 240 µM. It also gave an MIC [1] greater than 240 µM and an MIC [16] of no less than 240 µM.
`CC[C@H](C)[C@H](NC(=O)[C@@H](NC(=O)[C@@H]1CCCN1C(=O)[C@H](CC(C)C)NC(=O)[C@H](C)NC(=O)[C@H](CO)NC(=O)[C@@H](NC(=O)[C@@H](N)CCSC)[C@@H](C)O)[C@@H](C)CC)C(=O)N[C@@H](CCC(N)=O)C(=O)N[C@@H](CCCCN)C(=O)O` [MTSALPIIQK] showed an MIC [17] of no less than 2720 µM, an MIC [18] greater than 2720 µM and an MIC [19] greater than 2720 µM.
Compound `CC(=O)N[C@@H](CCCN=C(N)N)C(=O)N[C@@H](Cc1c[nH]c2ccccc12)C(=O)N[C@@H](CCCN=C(N)N)C(=O)N[C@@H](Cc1ccccc1)C(=O)N[C@@H](Cc1c[nH]c2ccccc12)C(=O)N[C@@H](CCCN=C(N)N)C(N)=O` [RWRFWR] has an MIC [20] of 31.3 µM (≈ 32.8 µg/mL) and an MIC [21] of no less than 125 µM.
`CC[C@H](C)[C@H](NC(=O)[C@@H]1CSSC[C@H](NC(=O)[C@H](CCCCN)NC(=O)[C@@H](N)[C@@H](C)O)C(=O)N[C@@H](Cc2ccccc2)C(=O)N[C@@H](CCC(N)=O)C(=O)N[C@@H](Cc2c[nH]c3ccccc23)C(=O)N[C@@H](CCC(N)=O)C(=O)N[C@@H](CCCN=C(N)N)C(=O)N[C@@H](CC(N)=O)C(=O)N[C@@H](CCSC)C(=O)N[C@@H](CCCN=C(N)N)C(=O)N[C@@H](CCCCN)C(=O)N[C@@H](C(C)C)C(=O)N[C@@H](CCCN=C(N)N)C(=O)NCC(=O)N2CCC[C@H]2C(=O)N2CCC[C@H]2C(=O)N[C@@H](C(C)C)C(=O)N[C@@H](CO)C(=O)N1)C(=O)N[C@@H](CCCCN)C(=O)N[C@@H](CCCN=C(N)N)C(=O)N[C@@H](CC(=O)O)C(=O)N[C@@H](CO)C(=O)O` [TKCFQWQRNMRKVRGPPVSCIKRDS] showed an MIC [22] of no less than 33.1 µM, an MIC [8] greater than 128 µM and an MIC [23] of 16.5 µM (≈ 50 µg/mL).
For `NCCCC[C@H](NC(=O)[C@H](CCCN=C(N)N)NC(=O)[C@H](Cc1c[nH]c2ccccc12)NC(=O)[C@H](CCCCN)NC(=O)[C@H](CCCN=C(N)N)NC(=O)[C@H](Cc1c[nH]c2ccccc12)NC(=O)[C@H](CCCCN)NC(=O)[C@H](CCCN=C(N)N)NC(=O)[C@H](Cc1c[nH]c2ccccc12)NC(=O)[C@H](CCCCN)NC(=O)[C@H](CCCN=C(N)N)NC(=O)[C@H](Cc1c[nH]c2ccccc12)NC(=O)[C@H](CCCCN)NC(=O)[C@H](CCCN=C(N)N)NC(=O)[C@@H](N)Cc1c[nH]c2ccccc12)C(N)=O` [WRKWRKWRKWRKWRK], the MIC [24] was 4 µM (≈ 9.48 µg/mL), the MIC [25] was 8 µM (≈ 19 µg/mL) and the MIC [26] was 8 µM (≈ 19 µg/mL). For the same compound, the MIC [27] was 16 µM (≈ 37.9 µg/mL), the MIC [28] was 16 µM (≈ 37.9 µg/mL) and the MIC [29] was 8 µM (≈ 19 µg/mL). For the same compound, the MIC [30] was 8 µM (≈ 19 µg/mL), the MIC [31] was 2 µM (≈ 4.74 µg/mL) and the MIC [32] was 4 µM (≈ 9.48 µg/mL). It also gave an MIC [33] of 16 µM (≈ 37.9 µg/mL), an MIC [34] of 8 µM (≈ 19 µg/mL) and an MIC [35] of 8 µM (≈ 19 µg/mL). The MIC [36] was 16 µM (≈ 37.9 µg/mL), the MIC [37] was 16 µM (≈ 37.9 µg/mL) and the MIC [38] was 16 µM (≈ 37.9 µg/mL). For the same compound, the MIC [39] was 16 µM (≈ 37.9 µg/mL), the MIC [40] was 16 µM (≈ 37.9 µg/mL) and the MIC [41] was 16 µM (≈ 37.9 µg/mL). For the same compound, the MIC [42] was 8 µM (≈ 19 µg/mL), the MIC [43] was 2 µM (≈ 4.74 µg/mL) and the MIC [44] was 4 µM (≈ 9.48 µg/mL). It also gave an MIC [45] of no less than 32 µM, an MIC [46] of 8 µM (≈ 19 µg/mL) and an MIC [47] of 4 µM (≈ 9.48 µg/mL). It also gave an MIC [9] of 4 µM (≈ 9.48 µg/mL), an MIC [48] of 4 µM (≈ 9.48 µg/mL) and an MIC [49] of 2 µM (≈ 4.74 µg/mL). For the same compound, the MIC [50] was 4 µM (≈ 9.48 µg/mL), the MIC [1] was 4 µM and 8 µM and the MIC [10] was 4 µM (≈ 9.48 µg/mL). The MIC [51] was 2 µM (≈ 4.74 µg/mL).
